Data from patent US20240132498A1, “CRYSTALLINE FORMS OF 5-(3,4-DIFLUOROBENZYL)-8-((1R,4R)-4-METHYLCYCLOHEXYL)-6,9-DIOXO-2,5,8-TRIAZASPIRO[3.5]NONANE-2-CARBALDEHYDE” (Cytokinetics, Incorporated, priority 2022, published 2024).

Assays:
[1] = biological target: T1, bovine cardiac myofibrils (Bos taurus, UniProt Q9BE39); assay: Skinned bovine cardiac myofibril ATPase assay (PK/LDH-coupled); format: biochemical; settings: bovine cardiac myofibril ATPase activity; Ca2+ for 50% or 75% activation
T1 construct: full-length cardiac myosin in the context of the native sarcomere; from tissue; host or cells: bovine cardiac left ventricular tissue, detergent-skinned myofibrils
Method: To evaluate the effect of the compound 5-(3,4-difluorobenzyl)-8-((1r,4r)-4-methylcyclohexyl)-6,9-dioxo-2,5,8-triazaspiro[3.5]nonane-2-carbaldehyde on the ATPase activity of full-length cardiac myosin in the context of the native sarcomere, skinned myofibril assays were performed. Bovine cardiac myofibrils were obtained by homogenizing bovine cardiac left ventricular tissue in the presence of a detergent such as triton X-100. Such treatment removes membranes and a majority of the soluble cytoplasmic proteins but leaves intact the cardiac sarcomeric acto-myosin apparatus. Myofibril preparations retain the ability to hydrolyze ATP in a Ca^2+ regulated manner. ATPase activities of such myofibril preparations in the presence and absence of the compound 5-(3,4-difluorobenzyl)-8-((1r,4r)-4-methylcyclohexyl)-6,9-dioxo-2,5,8-triazaspiro[3.5]nonane-2-carbaldehyde was assayed at Ca^2+ concentrations activating to a defined fraction of the maximal rate (i.e., […], 75%). The compound 5-(3,4-difluorobenzyl)-8-((1r,4r)-4-methylcyclohexyl)-6,9-dioxo-2,5, 8-triazaspiro [3.5]nonane-2-carbaldehyde was assessed for its ability to inhibit the steady-state ATPase activity of bovine cardiac myofibrils using pyruvate kinase and lactate dehydrogenase (PK/LDH)-coupled enzyme system. This assay regenerates myosin-produced ADP into ATP by oxidizing NADH, producing an absorbance change at 340 nm. Prior to testing this compound, the bovine cardiac myofibrils were assessed for their calcium responsiveness and the calcium concentration that achieves either a 50% (pCa50) or 75% (pCa75) activation of the myofibril system was chosen as the final condition for assessing the inhibitory activity of this compound. All enzymatic activity was measured in a buffered solution containing 12 mM PIPES (piperazine-N,N′-bis(2-ethanesulfonic acid), 2 mM magnesium chloride at pH 6.8 (PM 12 buffer). Final assay conditions were 1 mg/mL of bovine cardiac myofibrils, 4 U/mL pyruvate kinase, 6 U/mL lactate dehydrogenase, 50 μM ATP, 0.1 mg/mL BSA (bovine serum albumin), 10 ppm antifoam, 1 mM DTT, 0.5 mM NADH, 1.5 mM PEP, 0.6 mM EGTA, and an amount of CaCl2) sufficient to achieve either 50% or 75% activation of the myofibril ATPase activity. The compound tested was prepared in accordance with the synthetic procedures described herein.

[2] = Mouse single dose pharmacokinetics; format: in vivo; settings: plasma, iv, 0.5 mg/kg, male C57BL/6 mice; for Vd: read-out: Vss
Method: Male C57BL/6 mice (18-25 g, 6-8 weeks old) were obtained from Zhejiang Vital River Laboratory Animal Technology Co., Ltd. All animals for IV administration had free access to food and water. The IV dosing was performed through tail vein. The IV dose solution for the Test Articles was prepared in 10% DMA/20% PG/70% HPOCD solution (40% w/v aqueous HPOCD) at a concentration of 0.1 mg/mL. The oral dosing suspension was prepared by suspending Test Article in 0.5% HPMC/0.1% Tween 80 in water at a concentration 0.2 mg/mL. Concentrations of IV and PO doses were measured at the end of the study. Pharmacokinetic (PK) parameters were calculated using the nominal dose values if the measured values were within 20% of the nominal values. A group of 15 mice received the IV dose where the volume was 5 mL/kg. Another group of 15 mice received by oral gavage of Test Article at 1 mg/kg. The oral dose volume was 5 mL/kg. Sparse blood samples were collected from groups of three mice via retro-orbital bleeding, placed into a K2EDTA microtainer tube and maintained on ice until centrifugation to obtain plasma. Each designated group of mice were bled at two-time points. The time points were predose (PO only), 5 (IV only), 15, 30 minutes, 1, 2, 4, 6, 8 and 24 hours postdose. Blood samples were centrifuged and the collected plasma was stored at −80° C. until analysis. Plasma samples were analyzed for Test Article concentrations using an LC/MS/MS method. Briefly, a 50 p L aliquot of each plasma sample was mixed with 100 μL of acetonitrile that contained an internal standard (IS). The mixture was vortexed and centrifuged. Ten (10) p L of the resulting solution was injected onto a reverse-phase C18 column and the resultant peaks detected on a LC/MS/MS equipped with a turbo ionspray ionization source. Sample concentrations below the limit of quantification (BLQ) were treated as zero for PK calculations. Composite PK parameters were estimated from a maximum of two sampling points per mouse and three mice per sampling point and the sparse data option of WinNonlin was used for noncompartmental analysis of the concentration-time data (Phoenix WinNonLin software, version 64; Pharsight, Mountain View, CA). The elimination rate constant (k) was calculated as the absolute value of the slope of the linear regression of logarithm of the concentration versus time for the last three data points of the concentration-time profiles. Apparent elimination half-life (t½) values were calculated as 1n(2)/k. Area under the concentration-time curve (AUC) values were estimated using linear trapezoidal method. AUC values were calculated from the dosing time to the last measurable concentration. AUC∞ values were calculated as the sum of the corresponding AUC and the ratio of the last detectable concentration divided by k. Plasma clearance (CL) was calculated from Dose/AUC. Mean resident time (MRT) was estimated by moment analysis. Volume of distribution at steady state (Vss) was calculated from MRT∞×CL. Maximum concentration (Cmax) and time to reach Cmax (tmax) were recorded as observed. Bioavailability was calculated dAUC∞,po/dAU∞.iv×100% where dAUC was the dose normalized AUC value. Compounds tested were prepared in accordance with the synthetic procedures described herein.

T1 sequence (Q9BE39 whole entry): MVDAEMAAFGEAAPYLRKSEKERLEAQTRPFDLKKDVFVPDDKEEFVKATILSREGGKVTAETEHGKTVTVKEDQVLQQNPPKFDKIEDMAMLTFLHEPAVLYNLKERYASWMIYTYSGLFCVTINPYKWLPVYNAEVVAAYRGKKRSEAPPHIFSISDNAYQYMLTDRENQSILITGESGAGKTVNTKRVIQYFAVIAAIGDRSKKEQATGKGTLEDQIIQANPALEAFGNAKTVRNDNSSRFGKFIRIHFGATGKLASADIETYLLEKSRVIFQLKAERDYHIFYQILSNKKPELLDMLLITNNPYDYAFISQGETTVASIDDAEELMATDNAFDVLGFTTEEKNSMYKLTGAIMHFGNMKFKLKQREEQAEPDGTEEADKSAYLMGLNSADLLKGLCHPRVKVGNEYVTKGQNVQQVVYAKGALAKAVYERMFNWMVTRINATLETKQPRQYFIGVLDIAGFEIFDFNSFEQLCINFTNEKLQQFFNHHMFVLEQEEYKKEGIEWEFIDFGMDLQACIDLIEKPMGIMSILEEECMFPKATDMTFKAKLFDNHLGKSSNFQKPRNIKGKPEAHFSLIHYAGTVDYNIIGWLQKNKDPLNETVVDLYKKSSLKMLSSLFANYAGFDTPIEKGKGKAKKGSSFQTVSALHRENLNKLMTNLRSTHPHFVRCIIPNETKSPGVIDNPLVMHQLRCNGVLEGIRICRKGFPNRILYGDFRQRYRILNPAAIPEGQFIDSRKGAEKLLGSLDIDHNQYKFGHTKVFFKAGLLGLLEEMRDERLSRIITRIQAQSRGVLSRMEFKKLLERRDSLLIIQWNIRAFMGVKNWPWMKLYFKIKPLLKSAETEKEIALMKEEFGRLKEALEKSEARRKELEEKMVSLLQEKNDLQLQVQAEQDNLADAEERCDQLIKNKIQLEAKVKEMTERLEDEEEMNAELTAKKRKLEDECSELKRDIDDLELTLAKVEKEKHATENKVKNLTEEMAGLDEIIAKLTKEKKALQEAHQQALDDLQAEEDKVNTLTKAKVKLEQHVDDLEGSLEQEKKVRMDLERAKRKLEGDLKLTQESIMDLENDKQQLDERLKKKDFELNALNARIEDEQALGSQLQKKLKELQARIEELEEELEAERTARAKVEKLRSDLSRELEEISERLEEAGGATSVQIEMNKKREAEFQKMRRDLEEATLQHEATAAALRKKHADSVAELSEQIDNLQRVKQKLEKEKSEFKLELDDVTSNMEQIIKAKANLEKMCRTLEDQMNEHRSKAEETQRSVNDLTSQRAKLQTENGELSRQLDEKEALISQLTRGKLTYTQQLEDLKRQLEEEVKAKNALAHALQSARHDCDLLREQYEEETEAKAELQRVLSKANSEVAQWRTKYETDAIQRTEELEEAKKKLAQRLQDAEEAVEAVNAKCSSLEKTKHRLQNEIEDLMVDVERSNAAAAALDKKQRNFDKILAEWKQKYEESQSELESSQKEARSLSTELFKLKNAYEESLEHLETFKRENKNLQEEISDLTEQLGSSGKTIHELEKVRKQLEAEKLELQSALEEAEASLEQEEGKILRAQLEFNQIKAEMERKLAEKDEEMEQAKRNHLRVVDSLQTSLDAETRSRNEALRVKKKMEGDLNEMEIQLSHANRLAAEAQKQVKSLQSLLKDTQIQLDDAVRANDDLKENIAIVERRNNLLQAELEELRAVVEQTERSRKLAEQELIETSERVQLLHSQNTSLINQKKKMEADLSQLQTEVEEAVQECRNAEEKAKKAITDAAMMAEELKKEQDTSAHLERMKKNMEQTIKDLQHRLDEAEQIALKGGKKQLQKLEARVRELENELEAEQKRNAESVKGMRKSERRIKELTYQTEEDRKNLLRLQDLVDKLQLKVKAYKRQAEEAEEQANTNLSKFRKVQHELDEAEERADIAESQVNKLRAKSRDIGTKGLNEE
T1 sequence (P85100 whole entry partner): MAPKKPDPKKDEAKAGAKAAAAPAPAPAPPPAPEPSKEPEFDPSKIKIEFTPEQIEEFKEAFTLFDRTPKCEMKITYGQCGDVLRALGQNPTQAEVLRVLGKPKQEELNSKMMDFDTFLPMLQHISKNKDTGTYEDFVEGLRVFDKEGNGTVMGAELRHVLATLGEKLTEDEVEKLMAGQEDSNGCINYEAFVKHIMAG
T1 sequence (Q3SZE5 whole entry partner): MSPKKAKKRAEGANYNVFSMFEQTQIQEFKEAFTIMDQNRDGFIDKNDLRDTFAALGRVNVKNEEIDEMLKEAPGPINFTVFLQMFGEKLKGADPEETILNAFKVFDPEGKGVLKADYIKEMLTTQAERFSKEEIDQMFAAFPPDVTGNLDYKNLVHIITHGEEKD

Compound | CDMF IC15 [1] [nM] | clearance [2] [mL/min/kg] | half-life [2] [h] | Vd [2] [L/kg]
CC(=O)N1CC2(C1)C(=O)N(c1ccc(C#N)cc1F)CC(=O)N2Cc1ccc(C(F)(F)F)cc1 [Comparator D, 4-(2-acetyl-6,9-dioxo-5-(4-(trifluoromethyl)benzyl)-2,5,8-triazaspiro[3.5]nonan-8-yl)-3-fluorobenzonitrile] | 1100 | – | – | –
O=CN1CC2(C1)C(=O)N([C@H]1CC[C@H](C(F)F)CC1)CC(=O)N2Cc1ccc(C(F)(F)F)cc1 [Comparator E, 8-((1r,4r)-4-(difluoromethyl)cyclohexyl)-6,9-dioxo-5-(4-(trifluoromethyl)benzyl)-2,5,8-triazaspiro[3.5]nonane-2-carbaldehyde] | 1300 | 11.6 | 2.8 | 3.28
C[C@H]1CC[C@H](N2CC(=O)N(Cc3ccc(F)c(F)c3)C3(CN(C=O)C3)C2=O)CC1 [Compound 1, 5-(3,4-difluorobenzyl)-8-((1r,4r)-4-methylcyclohexyl)-6,9-dioxo-2,5,8-triazaspiro[3.5]nonane-2-carbaldehyde] | 1500 | 28.4 | 1.77 | 4.2

Results, then the compound that gave them:

CDMF IC15 [1] [nM] | clearance [2] [mL/min/kg] | half-life [2] [h] | Vd [2] [L/kg] | Compound
1800 | – | – | – | O=CN1CC2(C1)C(=O)N(c1ccc(F)cc1F)CC(=O)N2Cc1ccc(Cl)cc1 [Comparator A, 5-(4-chlorobenzyl)-8-(2,4-difluorophenyl)-6,9-dioxo-2,5,8-triazaspiro[3.5]nonane-2-carbaldehyde]
1100 | 4.67 | 2.6 | 1.39 | O=C1[C@H](C2COC2)N(Cc2ccc(C(F)(F)F)cc2)C(=O)CN1c1ncc(Cl)cc1F [Comparator C, (S)-1-(5-chloro-3-fluoropyridin-2-yl)-3-(oxetan-3-yl)-4-(4-(trifluoromethyl)benzyl)piperazine-2,5-dione, reference compound]
